Target: T1, human SLC6A19 and TMEM27 (Homo sapiens, UniProt Q695T7)
T1 construct: expressed in transfected cells
T1 sequence (Q695T7 1-634): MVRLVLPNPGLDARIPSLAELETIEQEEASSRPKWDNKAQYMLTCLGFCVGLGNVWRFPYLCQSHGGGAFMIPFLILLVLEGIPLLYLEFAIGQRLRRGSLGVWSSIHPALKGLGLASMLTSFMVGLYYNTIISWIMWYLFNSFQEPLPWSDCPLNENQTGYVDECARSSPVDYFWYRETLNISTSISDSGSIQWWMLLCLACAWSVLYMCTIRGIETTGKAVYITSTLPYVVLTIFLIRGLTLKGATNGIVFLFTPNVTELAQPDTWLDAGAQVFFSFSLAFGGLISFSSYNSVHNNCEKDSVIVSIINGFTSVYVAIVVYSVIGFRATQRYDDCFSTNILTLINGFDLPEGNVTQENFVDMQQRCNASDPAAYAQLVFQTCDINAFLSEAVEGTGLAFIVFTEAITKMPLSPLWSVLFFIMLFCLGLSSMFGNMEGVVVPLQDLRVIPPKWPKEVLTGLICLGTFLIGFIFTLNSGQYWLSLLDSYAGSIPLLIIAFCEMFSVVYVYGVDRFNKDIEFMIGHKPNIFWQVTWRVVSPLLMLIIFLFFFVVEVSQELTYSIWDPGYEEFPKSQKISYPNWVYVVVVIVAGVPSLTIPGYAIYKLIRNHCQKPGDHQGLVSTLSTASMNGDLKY
T1 sequence (Q9HBJ8 15-222 partner): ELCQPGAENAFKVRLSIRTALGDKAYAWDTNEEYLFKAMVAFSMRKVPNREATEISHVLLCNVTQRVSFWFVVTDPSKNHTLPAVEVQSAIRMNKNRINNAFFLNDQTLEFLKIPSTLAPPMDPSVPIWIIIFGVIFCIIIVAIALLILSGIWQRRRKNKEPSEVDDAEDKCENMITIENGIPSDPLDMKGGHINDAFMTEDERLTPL
Assay: Radiolabelled (3H) leucine uptake in CHO cells with doxycycline-inducible expression of human SLC6A19 and TMEM27 (Example B-1)
Format: cell-based
Details: CHO cells with doxycycline-inducible expression of human SLC6A19 and TMEM27, read-out: SLC6A19_Radioligand Uptake Assay IC50
Experimental: The flasks were then incubated (humidified, 37° C. with 5% CO2) for 2 minutes. After incubation, 10 mL of pre-warmed cell culture media was added to each flask. The cell suspension was collected and centrifuged for 5 minutes at 200×g. The supernatant was aspirated and the pellet was resuspended in 5 mL pre-warmed cell culture media. The resuspended cells were counted using the Countess Cell Counting Chamber (Invitrogen) and the cell concentration of the suspension was readjusted to 1 million live cells/mL using pre-warmed cell culture media. […] Assay plates were then incubated (humidified, 37° C. with 5% CO2) for 18 hours. After incubation, the media was aspirated and the wells were washed 4 times with pre-warmed HBSS (Sigma-Aldrich, H8264-1L) using an Apricot S-Pipette S2 (Apricot Designs), such that 5 uL/well HBSS was remaining at the end of each wash. […] At this step, the final in-well DMSO concentration in the assay plate is 0.5%. All compounds were plated in a duplicate 8-point dilution series that consisted of 3-fold dilutions. The plates were incubated with compound (humidified, 37° C. with 5% CO2) for 1 hour. […] The plates were then incubated (humidified, 37° C. with 5% CO2) on a plate shaker at 200 rpm for 2 hours. After incubation, the plates were removed from the shaker and kept at room temperature for 15 minutes. Liquid scintillation analysis was performed using the MicroBeta2 Microplate Counter (Perkin Elmer). Activity (%) was derived by normalizing the average of positive control compound treated wells to 0% and the average of DMSO (negative control) wells to 100%. Collaborative Drug Discovery software was used for graphing data.

CC1CCN(C(=O)NCc2cc3cc(Cl)c(OCc4ccon4)cc3[nH]2)C1 (stereo not shown) [Compound 87, N-((5-chloro-6-(isoxazol-3-ylmethoxy)-1H-indol-2-yl)methyl)-3-methylpyrrolidine-1-carboxamide]
IC50: 365 nM

O=C(NCc1cc2cc(F)c(OCc3ccon3)cc2[nH]1)N1CCCCC1 [Compound 88, N-((5-fluoro-6-(isoxazol-3-ylmethoxy)-1H-indol-2-yl)methyl)piperidine-1-carboxamide]
IC50: 477 nM

O=C(NCc1cc2cc(F)c(OCc3ccon3)cc2[nH]1)N1CCC1 [Compound 89, N-((5-fluoro-6-(isoxazol-3-ylmethoxy)-1H-indol-2-yl)methyl)azetidine-1-carboxamide]
IC50: 567 nM

CC1CCN(C(=O)NCc2cc3cc(F)c(OCc4ccon4)cc3[nH]2)C1 (stereo not shown) [Compound 91, N-((5-fluoro-6-(isoxazol-3-ylmethoxy)-1H-indol-2-yl)methyl)-3-methylpyrrolidine-1-carboxamide]
IC50: 524 nM

O=C(NCc1cc2cc(F)c(OCc3cscn3)cc2[nH]1)N1CCC1 [Compound 92, N-((5-fluoro-6-(thiazol-4-ylmethoxy)-1H-indol-2-yl)methyl)azetidine-1-carboxamide]
IC50: 214 nM

O=C(NCc1cc2cc(Cl)c(OCc3cscn3)cc2[nH]1)N1CCC(F)C1 (stereo not shown) [Compound 93, N-((5-chloro-6-(thiazol-4-ylmethoxy)-1H-indol-2-yl)methyl)-3-fluoropyrrolidine-1-carboxamide]
IC50: 177 nM

CC1(C(=O)NCc2cc3cc(Cl)c(OCc4cccc(C(F)(F)F)n4)cc3[nH]2)CC1 [Compound 101, N-((5-chloro-6-((6-(trifluoromethyl)pyridin-2-yl)methoxy)-1H-indol-2-yl)methyl)-1-methylcyclopropane-1-carboxamide]
IC50: 4360 nM

CC(C)c1cc(COc2cc3[nH]c(CNC(=O)C4(C)CC4)cc3cc2Cl)no1 [Compound 102, N-((5-chloro-6-((5-isopropylisoxazol-3-yl)methoxy)-1H-indol-2-yl)methyl)-1-methylcyclopropane-1-carboxamide]
IC50: 17600 nM

CC1(C(=O)NCc2cc3cc(Cl)c(OCCc4ccon4)cc3[nH]2)CC1 [Compound 103, N-((5-chloro-6-(2-(isoxazol-3-yl)ethoxy)-1H-indol-2-yl)methyl)-1-methylcyclopropane-1-carboxamide]
IC50: 114 nM

O=C(NCc1cc2cc(F)c(OCc3cocn3)cc2[nH]1)N1CCCC1 [Compound 115, N-((5-fluoro-6-(oxazol-4-ylmethoxy)-1H-indol-2-yl)methyl)pyrrolidine-1-carboxamide]
IC50: 230 nM

O=C(NCc1cc2cc(F)c(OCc3ccon3)cc2[nH]1)N1CCCC1 [Compound 116, N-((5-fluoro-6-(isoxazol-3-ylmethoxy)-1H-indol-2-yl)methyl)pyrrolidine-1-carboxamide]
IC50: 157 nM

Cc1cc(COc2cc3[nH]c(CNC(=O)N4CCCC4)cc3cc2F)no1 [Compound 117, N-((5-fluoro-6-((5-methylisoxazol-3-yl)methoxy)-1H-indol-2-yl)methyl)pyrrolidine-1-carboxamide]
IC50: 267 nM

Cc1cc(COc2cc3[nH]c(CNC(=O)N4CCCC4)cc3cc2F)on1 [Compound 118, N-((5-fluoro-6-((3-methylisoxazol-5-yl)methoxy)-1H-indol-2-yl)methyl)pyrrolidine-1-carboxamide]
IC50: 1110 nM

Cc1cnc(COc2cc3[nH]c(CNC(=O)N4CCCC4)cc3cc2Cl)o1 [Compound 120, N-((5-chloro-6-((5-methyloxazol-2-yl)methoxy)-1H-indol-2-yl)methyl)pyrrolidine-1-carboxamide]
IC50: 375 nM

O=C(NCc1cc2cc(F)c(OCc3cscn3)cc2[nH]1)C1(C(F)(F)F)CC1 [Compound 127, N-((5-fluoro-6-(thiazol-4-ylmethoxy)-1H-indol-2-yl)methyl)-1-(trifluoromethyl)cyclopropane-1-carboxamide]
IC50: 98 nM

CCC(=O)NCc1cc2cc(F)c(OCc3ccon3)cc2[nH]1 [Compound 137, N-((5-fluoro-6-(isoxazol-3-ylmethoxy)-1H-indol-2-yl)methyl)propionamide]
IC50: 183 nM

Source: patent US20240199546A1, “INHIBITORS OF SOLUTE CARRIER FAMILY 6A MEMBER 19 (SLC6A19) AND METHODS OF USE THEREOF” (Maze Therapeutics, Inc., priority 2022, published 2024)
